Assay results reported in ChEMBL document CHEMBL5096229, “A 1,2,3-Triazole Derivative of Quinazoline Exhibits Antitumor Activity by Tethering RNF168 to SQSTM1/P62” (J Med Chem, 2022).
Activity calls are given as the source filed them. The calls are words filed in the database; no cut-off is given here.

Columns and labels:
[1] = tested on: A549; test: Cytotoxicity against human A549 cells assessed as reduction in cell viability incubated for 72 hrs by MTS assay; format: functional, cell-based; details: A549, 72 h
[2] = tested on: HCT-116; test: Cytotoxicity against human HCT-116 cells assessed as reduction in cell viability incubated for 72 hrs by MTS assay; format: functional, cell-based; details: HCT-116, 72 h
[3] = tested on: HCT-116; test: Induction of cell cycle arrest in human HCT-116 cells assessed as accumulation at G0/G1 phase at 0.34 uM after 24 hrs by propidium iodide-staining based flow cytometry (reference value: 58.01 +/- 1.77%); format: functional
[4] = tested on: HCT-116; test: Induction of cell cycle arrest in human HCT-116 cells assessed as accumulation at S phase at 0.34 uM after 24 hrs by propidium iodide-staining based flow cytometry (reference value: 17.17 +/- 0.18%); format: functional
[5] = tested on: HCT-116; test: Induction of cell cycle arrest in human HCT-116 cells assessed as accumulation at G2/M phase at 0.34 uM after 24 hrs by propidium iodide-staining based flow cytometry (reference value: 23.25 +/- 1.38%); format: functional
[6] = tested on: A-375; test: Cytotoxicity against human A-375 cells assessed as reduction in cell viability incubated for 72 hrs by MTS assay; format: functional, cell-based; details: A-375, 72 h
[7] = tested on: HeLa; test: Cytotoxicity against human HeLa cells assessed as reduction in cell viability incubated for 72 hrs by MTS assay; format: functional, cell-based
[8] = tested on: HepG2; test: Cytotoxicity against human HepG2 cells assessed as reduction in cell viability incubated for 72 hrs by MTS assay; format: functional, cell-based; details: HepG2, 72 h
[9] = tested on: MCF7; test: Cytotoxicity against human MCF7 cells assessed as reduction in cell viability incubated for 72 hrs by MTS assay; format: functional, cell-based; details: MCF7, 72 h
[10] = tested on: MDA-MB-231; test: Cytotoxicity against human MDA-MB-231 cells assessed as reduction in cell viability incubated for 72 hrs by MTS assay; format: functional, cell-based; details: MDA-MB-231, 72 h
[11] = tested on: MGC-803; test: Cytotoxicity against human MGC-803 cells assessed as reduction in cell viability incubated for 72 hrs by MTS assay; format: functional, cell-based; details: MGC-803, 72 h
[12] = tested on: U2OS; test: Cytotoxicity against human U2OS cells assessed as reduction in cell viability incubated for 72 hrs by MTS assay; format: functional, cell-based
[13] = Cytotoxicity against human MCF-10A cells assessed as reduction in cell viability incubated for 72 hrs by MTS assay; format: toxicity, cell-based
[14] = tested on: HCT-116; test: Induction of apoptosis in human HCT-116 cells at 5 to 10 uM measured after 24 hrs by annexinV-FITC/propidium iodide staining based flow cytometry analysis; format: functional, cell-based; details: dose 5-10 µM
[15] = tested on: HCT-116; test: Induction of autophagy in human HCT-116 cells assessed as increase in p62 protein level measured after 12 to 24 hrs by Western blot analysis; format: functional, cell-based; details: time 12-24 hrs
[16] = tested on: HCT-116; test: Induction of autophagy in human HCT-116 cells assessed as increase in LC-3B puncta level measured after 12 to 24 hrs by immunofluorescence analysis; format: functional, cell-based; details: time 12-24 hrs
[17] = tested on: HCT-116; test: Induction of cell cycle arrest in human HCT-116 cells assessed as accumulation at G0/G1 phase at IC50 concentration after 24 hrs by propidium iodide-staining based flow cytometry (reference value: 58.01 +/- 1.77%); format: functional
[18] = tested on: HCT-116; test: Induction of cell cycle arrest in human HCT-116 cells assessed as accumulation at S phase at IC50 concentration after 24 hrs by propidium iodide-staining based flow cytometry (reference value: 17.17 +/- 0.18%); format: functional
[19] = tested on: HCT-116; test: Induction of cell cycle arrest in human HCT-116 cells assessed as accumulation at G2/M phase at IC50 concentration after 24 hrs by propidium iodide-staining based flow cytometry (reference value: 23.25 +/- 1.38%); format: functional
[20] = target: Sequestosome-1 (Homo sapiens, UniProt Q13501); test: Binding affinity to P62 in human HCT-116 cells lysates at 10 uM incubated for 12 hrs by pull-down based immunoblot assay; format: subcellular; details: filed as activator
Sequestosome-1, sequence (Q13501 whole entry): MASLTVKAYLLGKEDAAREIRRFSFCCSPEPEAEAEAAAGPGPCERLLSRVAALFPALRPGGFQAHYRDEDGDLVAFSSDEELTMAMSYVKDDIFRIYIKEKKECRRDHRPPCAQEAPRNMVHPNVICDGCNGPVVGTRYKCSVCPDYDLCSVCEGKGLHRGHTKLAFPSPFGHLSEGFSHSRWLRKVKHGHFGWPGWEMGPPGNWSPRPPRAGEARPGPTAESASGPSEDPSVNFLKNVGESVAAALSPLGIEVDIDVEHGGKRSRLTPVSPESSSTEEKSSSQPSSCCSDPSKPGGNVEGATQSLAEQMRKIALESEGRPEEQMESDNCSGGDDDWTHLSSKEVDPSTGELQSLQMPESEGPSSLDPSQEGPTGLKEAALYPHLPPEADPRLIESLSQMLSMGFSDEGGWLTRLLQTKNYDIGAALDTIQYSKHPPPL

[21] = tested on: Bacteria; test: Binding affinity to bacteria produced His tagged-P62 at 10 uM incubated for 12 hrs by pull-down based immunoblot assay; details: filed as activator
[22] = target: T1, E3 ubiquitin-protein ligase RNF168 (Homo sapiens, UniProt Q8IYW5); test: Binding affinity to RNF168 in human HCT-116 cells lysates at 10 uM by pull-down based immunoblot assay; format: subcellular; details: filed as activator
T1 sequence (Q8IYW5 whole entry): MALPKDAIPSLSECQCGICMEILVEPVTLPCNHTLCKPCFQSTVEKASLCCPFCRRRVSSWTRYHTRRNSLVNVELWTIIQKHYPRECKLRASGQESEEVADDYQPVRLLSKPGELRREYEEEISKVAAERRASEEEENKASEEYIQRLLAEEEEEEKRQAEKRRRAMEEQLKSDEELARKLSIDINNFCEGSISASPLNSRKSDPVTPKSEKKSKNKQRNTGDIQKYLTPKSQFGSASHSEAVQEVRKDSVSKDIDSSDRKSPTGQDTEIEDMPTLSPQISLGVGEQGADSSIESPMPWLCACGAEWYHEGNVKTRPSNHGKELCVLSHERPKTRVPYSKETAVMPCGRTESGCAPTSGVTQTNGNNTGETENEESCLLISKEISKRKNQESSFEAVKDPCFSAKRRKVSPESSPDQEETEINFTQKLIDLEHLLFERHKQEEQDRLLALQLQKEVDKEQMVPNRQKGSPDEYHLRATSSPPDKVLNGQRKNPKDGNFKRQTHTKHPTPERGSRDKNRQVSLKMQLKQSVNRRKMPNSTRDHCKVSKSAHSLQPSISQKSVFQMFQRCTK

[23] = tested on: Bacteria; test: Binding affinity to bacteria produced GST-tagged RNF168 at 10 uM by pull-down based immunoblot assay; details: filed as activator
[24] = target: T1, E3 ubiquitin-protein ligase RNF168; test: Binding affinity to RNF168 (unknown origin) by MST assay

| Structure (SMILES) | IC50 [1] | IC50 [2] | further results |
| --- | --- | --- | --- |
| N#Cc1ccc(-n2cc(-c3ccc4nc(N)nc(N)c4c3)nn2)cc1 | > 20 µM | > 20 µM | – |
| Nc1nc(N)c2cc(-c3cn(-c4ccc(F)cc4)nn3)ccc2n1 | 8.7 µM | 2.89 µM | – |
| COC(=O)Nc1nc2cc(C(=O)c3cccs3)ccc2[nH]1 [NOCODAZOLE] | – | – | Activity [3]: 2.92%; Activity [4]: 7.11%; Activity [5]: 93.17% |
| Cc1ccc(-n2cc(-c3ccc4nc(N)nc(N)c4c3)nn2)cc1 | 1.78 µM | 2.46 µM | – |
| COc1cc(OC)cc(-n2cc(-c3ccc4nc(N)nc(N)c4c3)nn2)c1 | 4.74 µM | 1.34 µM | – |
| Cc1nc2ccc(CN(C)c3ccc(C(=O)N[C@@H](CCC(=O)O)C(=O)O)s3)cc2c(=O)[nH]1 [RALTITREXED] | 0.81 µM | 0.076 µM | IC50 [6]: 4.68 µM; IC50 [7]: 5.51 µM; IC50 [8]: 9.63 µM; IC50 [9]: 10.9 µM; IC50 [10]: > 20 µM; IC50 [11]: 9.52 µM; IC50 [12]: > 20 µM; IC50 at 72 h [13]: > 20 µM |
| COc1cc(-c2cn(-c3ccc4nc(N)nc(N)c4c3)nn2)cc(OC)c1OC | 1.88 µM | 0.87 µM | – |
| COc1cc(-n2cc(-c3ccc4nc(C)[nH]c(=O)c4c3)nn2)cc(OC)c1OC | > 20 µM | > 20 µM | – |
| COc1ccc(OC)c(-n2cc(-c3ccc4nc(N)nc(N)c4c3)nn2)c1 | 8.36 µM | 3.09 µM | – |
| CC[C@@]1(O)C(=O)OCc2c1cc1n(c2=O)Cc2cc3ccccc3nc2-1 | – | – | Activity [14]: Active |
| COc1cc(-n2cc(-c3ccc4nc(N)[nH]c(=O)c4c3)nn2)cc(OC)c1OC | > 20 µM | > 20 µM | – |
| COc1ccc(-n2cc(-c3ccc4nc(N)nc(N)c4c3)nn2)c([N+](=O)[O-])c1 | 8.4 µM | 8.04 µM | – |
| Nc1nc(N)c2cc(-c3cn(-c4ccc(Br)cc4)nn3)ccc2n1 | 2.14 µM | 1.69 µM | – |
| Nc1nc(N)c2cc(-c3cn(-c4ccccc4)nn3)ccc2n1 | 2.18 µM | 1.93 µM | – |
| Nc1nc(N)c2cc(-c3cn(-c4ccc([N+](=O)[O-])cc4)nn3)ccc2n1 | 7.83 µM | 9.86 µM | – |
| Nc1nc(N)c2cc(-c3cn(-c4ccc(Cl)cc4)nn3)ccc2n1 | 7.61 µM | 2.15 µM | – |
| COc1ccc(-n2cc(-c3ccc4nc(N)nc(N)c4c3)nn2)c(OC)c1 | > 20 µM | 5.35 µM | – |
| CCN(CC)CCCC(C)Nc1ccnc2cc(Cl)ccc12 (stereo not drawn) | – | – | Activity [15]: Active; Activity [16]: Active |
| COc1ccc(-n2cc(-c3ccc4nc(N)nc(N)c4c3)nn2)cc1O | > 20 µM | > 20 µM | – |
| Nc1nc(N)c2cc(-c3cn(-c4ccc(O)cc4)nn3)ccc2n1 | > 20 µM | > 20 µM | – |
| COc1ccc(-n2cc(-c3ccc4nc(N)nc(N)c4c3)nn2)cc1 | > 20 µM | 2.44 µM | – |
| Nc1nc(N)c2cc(-c3cn(-c4ccc(F)cc4F)nn3)ccc2n1 | 3.74 µM | 3.29 µM | – |
| COc1cccc(-n2cc(-c3ccc4nc(N)nc(N)c4c3)nn2)c1 | 3.27 µM | 2.75 µM | – |
| Nc1nc(N)c2cc(-n3cc(-c4ccccc4)nn3)ccc2n1 | 6.65 µM | 5.46 µM | – |
| O=c1[nH]cc(F)c(=O)[nH]1 [FLUOROURACIL] | 4.52 µM | 4.89 µM | IC50 [6]: 3.52 µM; IC50 [7]: > 20 µM; IC50 [9]: > 20 µM; IC50 [10]: 10.2 µM; IC50 [11]: 7.54 µM; IC50 [12]: > 20 µM; IC50 at 72 h [13]: > 20 µM; Activity [17]: 34.65%; Activity [18]: 65.12%; Activity [19]: 11.89% |
| COc1cc(-n2cc(-c3ccc4nc(N)nc(NCCCCCCNC(=O)CCCC[C@@H]5SC[C@@H]6NC(=O)N[C@@H]65)c4c3)nn2)cc(OC)c1OC | – | – | Activity [20]: Active; Activity [21]: Active; Activity [22]: Active; Activity [23]: Active; Kd [24]: 6.82 µM |
